According to US8633005B2, “Isocyclomaltooligosaccharide(s), isocyclomaltooligosaccharide-forming enzyme, their preparation and uses” (Hayashibara Co., Ltd., priority 2004, dated 2014):
Read-outs that look alike come from different tables or passages of the source.

Key:
[1] = Reducing power by the Somogyi-Nelson method; format: physicochemical
Excerpt: It was concluded that Saccharides I and II were substantially non-reducing saccharides.

[2] = system: ICM-forming enzyme; assay: Effects of metal ions on the enzyme activity; format: biochemical, Bacillus circulans AM7
[3] = Optimum temperature and pH for the enzyme reaction; format: biochemical, Bacillus circulans AM7; conditions: for Optimum pH: 30° C. for 30 min; for Optimum temperature: pH 6.0 for 30 min
Description: The enzyme activity of ICM-forming enzyme of the present invention can be assayed as follows: A substrate solution is prepared by dissolving amylose in 50 mM acetate buffer (pH 6.0) containing 1 mM CaCl2 to give a concentration of 1.25% (w/v). 0.2 ml of an enzyme solution is added to 0.8 ml of the substrate solution, and the mixture solution is incubated at 30° C. for 30 mm. After stopping the reaction by heating at about 100° C. for 10 min, the reaction mixture is admixed with 4,000 units/g-solid of α-glucosidase and 250 units/g-solid of glucoamylase to hydrolyze the remaining soluble starch and concomitant oligosaccharides, and followed by the enzyme treatment at 50° C. for one hour. The amount of ICG5 contained in the treated mixture is determined by HPLC described later in Experiment 1. One unit activity of ICM-forming enzyme is defined as the amount of enzyme which forms one μmole of ICG5 per minute under the above conditions.
The results are in FIG. 9 (Optimum temperature) and FIG. 10 (Optimum pH), respectively.

[4] = enzyme purified from Bacillus circulans AM7
[5] = recombinant enzyme from transformant ETAM1

For `OCC1OC2OC3C(CO)OC(OC4C(CO)OC(OC5C(CO)OC(OC6C(CO)OC(OCC7OC(OC1C(O)C2O)C(O)C(O)C7O)C(O)C6O)C(O)C5O)C(O)C4O)C(O)C3O` [ICG6, cyclo{→6)-α-D-glucopyranosyl-(1→4)-α-D-glucopyranosyl-(1→4)-α-D-glucopyranosyl-(1→4)-α-D-glucopyranosyl-(1→4)-α-D-glucopyranosyl-(1→4)-α-D-glucopyranosyl-(1→}], the Reducing power [1] was “less than the measurable limit”.

With `[Cl][Cu][Cl]` [CuCl2] the “Inhibition of ICM-forming enzyme activity” value ([2]; 1 mM metal salt) was “about 20%” and the Relative activity ([2]; 1 mM metal salt, None = 100) was 79%.

`[Cl-].[Cl-].[Co+2]` [CoCl2] showed a Relative activity [2] of 100%.

B1: ICM-forming enzyme: enzyme from Bacillus circulans AM7 (FERM BP-10111) forming ICM from α-1,4 glucans; amino acid sequence SEQ ID NO:2 (protein)
chain: ASIGTVTENDTIYQIMVDRFNDGDSSNNATGAAIRYGENSEEDFRYMKGGDWQGVIDKLPYIHNMGYTAIWISPVAEPQMTNRENNGTGKNTAYHGYNVKDPNKANPYFGTKEKLKELVDSAHALGIKVIIDVVPNHIGDYMLGTQAFYDIPSLQPAAPFNNPAWYHHNGDINWSLADGRYDQWAQDYLENHDLGGLDDIDFDVPAAKQAIFSSIKGWFDYTGADGARVDAAKLMKPTDIGELQNLLGVNTFGENFDGNAEFVSRWVGTNKEWGMLDFPLFFSVLNSFAYGQSFDANIKGTLAQDSYYGGNANHMVTFIDNHDRNRFLTEAGGSVEKLQNALSFIFTVRGTPVVFQGTEQNKGNGNGQIMTGGIADTWNRWSMVKRDANGNVLENYFNENASTFKHVAKLNEIRKNNPALRTGTQREMWSAQNLYAFSRRIDTGTNVGQEVISAFSNASGGSQTVTLPLRAESTLTAGTVLVNQLNPSDTVTVQAGGVTGKQITVTLGANSAKIYAKTQPVTDTQAPSVPGNVTATVQNASSALVSWSASTDNVGVTGYEIYRNGVKIGTSATTSFTDNGLVGSTNYSYTVKAYDAAMNLSAFSAAALIVTPAGNSVTIYYKQGYTNPYIHYRPVGGTWTTSPGVAIPAAEVAGYNKITINIGAATQLEACFNNGSGIWDSNGGSNYLFGTGTWTYTPTGNIQAGGPVTPTASPTATPTVAPTATPTVTPTPTPTATPTVAPTATPTVAPTATPVPTATPAGNTATIYYKNTAFSNSYIHYKLDGATTWTTSPGVPMQASTFSGYKSITIPLGTATGLTAAFNNGSGTWDSNGGNNYHFGTGSSSLVGGSLTTGEPQADSVTFRVSVPGSTPANAPVYLTGSFNSWNAADTAYLLTRGSDGVYSVTLNLPAGTAVTYKLTRGSWATVETTSSGADITNRTLTPAGGAQTVTISVQRWKDQ
modifications: Bacillus circulans
In the case of B1, the “Optimum pH” value [3, 4] is reported as 4.5 to 8.0, the Optimum temperature [3, 4] is reported as 50 to 55 °C and the “Optimum pH” value [3, 5] is reported as 4.5 to 8.0. For the same molecule, the Optimum temperature [3, 5] was 50 to 55 °C.
